Measurements reported in patent US20150311441A1, “METAL COMPLEX COMPOUND, AND ORGANIC LIGHT-EMITTING ELEMENT AND DISPLAY DEVICE CONTAINING THE SAME” (CANON KABUSHIKI KAISHA, priority 2014, published 2015).

Assay: Stability to water of a deposition film
Conditions: for State of the film after 5 min (stability to water): 100 nm deposition film on glass substrate, water dropped on film, state after 5 minutes measured with thickness profiler (Alpha-Step); for Dissolution of the film in water: deposition film in contact with water, summary of the Table 1 test
Experimental: The stability to water of the metal complex compound was examined. A deposition film was formed to a thickness of 100 nm on a glass substrate, and water was dropped on the deposition film. After 5 minutes, the state of the film was measured with a thickness profiler (Alpha-Step). Also, the stability to water of lithium fluoride and cesium fluoride, which are generally used as an electron injection material, were examined for comparison.

[F-].[Li+] [compound 1, lithium fluoride]
State of the film after 5 min (stability to water): Dissolved
Dissolution of the film in water: dissolved in water immediately

[Cs+].[F-] [compound 2, cesium fluoride]
State of the film after 5 min (stability to water): Dissolved
Dissolution of the film in water: dissolved in water immediately
